In ChEMBL document CHEMBL5634090, “Design of phenothiazine-based cationic amphiphilic derivatives incorporating arginine residues: Potential membrane-active broad-spectrum antimicrobials combating pathogenic bacteria in vitro and in vivo” (Eur J Med Chem, 2023):
≈ marks a conversion by molar mass, not a printed value. Calls of active or inactive are those of the source. The calls are words filed in the database; no cut-off is given here.

Legend:
[1] = tested on: Staphylococcus aureus; test: Antibacterial activity against methicillin resistant Staphylococcus aureus NCTC 10442 in presence of 1 mmol/L Mg2+ by broth microdilution method; format: functional
[2] = Selectivity index, ratio of CC50 for cytotoxicity against HEK293 cells to MIC for antibacterial activity against Pseudomonas aeruginosa ATCC 9027; format: toxicity, cell-based; conditions: human, read-out: Selectivity Index
[3] = tested on: Klebsiella pneumoniae; test: Antibacterial activity against Klebsiella pneumoniae ATCC 10031 in presence of 2.5 mmol/L Ca2+ by broth microdilution method; format: functional
[4] = tested on: Staphylococcus aureus; test: Antibacterial activity against methicillin resistant Staphylococcus aureus N315 in presence of 140 mmol/L Na+ by broth microdilution method; format: functional
[5] = tested on: Staphylococcus aureus; test: Antibacterial activity against methicillin resistant Staphylococcus aureus N315 by microbroth dilution assay; format: functional
[6] = tested on: Staphylococcus aureus; test: Antibacterial activity against Staphylococcus aureus ATCC 29213 assessed as log reduction in bacterial load at 4 times MIC measured after 2 hrs by time kill assay; format: functional
[7] = tested on: Staphylococcus aureus; test: Inhibition of biofilm formation in Staphylococcus aureus ATCC 29213 at 0.78 ug/ml by crystal violet staining assay relative to control; format: functional
[8] = tested on: Pseudomonas aeruginosa; test: Antibacterial activity against Pseudomonas aeruginosa ATCC 9027 in presence of 4.50 mmol/L K+ by broth microdilution method; format: functional
[9] = tested on: Staphylococcus aureus; test: Antibacterial activity against methicillin resistant Staphylococcus aureus NCTC 10442 by microbroth dilution assay; format: functional
[10] = tested on: Staphylococcus aureus; test: Inhibition of biofilm formation in Staphylococcus aureus ATCC 29213 at 12.5 ug/ml by crystal violet staining assay relative to control; format: functional
[11] = tested on: Klebsiella pneumoniae; test: Antibacterial activity against Klebsiella pneumoniae ATCC 14581 in presence of 20 umol/L Fe3+ by broth microdilution method; format: functional
[12] = tested on: Klebsiella pneumoniae; test: Antibacterial activity against Klebsiella pneumoniae ATCC 10031 assessed as loss in cell viability at 8 times MIC incubated for 4 hrs by LIVE/DEAD BacLight bacterial viability assay; format: functional, organism-based; conditions: Cell membrane
[13] = tested on: Klebsiella pneumoniae; test: Antibacterial activity against Klebsiella pneumoniae ATCC 10031 in presence of 1 mmol/L Mg2+ by broth microdilution method; format: functional
[14] = tested on: Escherichia coli; test: Antibacterial activity against Escherichia coli ATCC 25922 in presence of 20 umol/L Fe3+ by broth microdilution method; format: functional
[15] = tested on: Escherichia coli; test: Antibacterial activity against Escherichia coli ATCC 25922 in presence of 140 mmol/L Na+ by broth microdilution method; format: functional
[16] = Cytotoxicity against HEK293 cells assessed as cell survival rate at 3.125 ug/ml by CCK-8 assay relative to control; format: toxicity, cell-based; conditions: human, at 3.125 µg/mL, read-out: Activity
[17] = tested on: Staphylococcus aureus; test: Antibiofilm activity against 24 hrs preformed biofilm in Staphylococcus aureus ATCC 29213 assessed as reduction in biofilm viability at 3.125 ug/ml relative to control; format: functional; conditions: dose 3.125 µg/ml
[18] = Cytotoxicity against HEK293 cells assessed as cell survival rate at 50 ug/ml by CCK-8 assay relative to control; format: toxicity, cell-based; conditions: human, at 50 µg/mL, read-out: Activity
[19] = tested on: Klebsiella pneumoniae; test: Inhibition of biofilm formation in Klebsiella pneumoniae ATCC 10031 at 12.5 ug/ml by crystal violet staining assay relative to control; format: functional
[20] = tested on: Klebsiella pneumoniae; test: Antibiofilm activity against 24 hrs preformed biofilm in Klebsiella pneumoniae ATCC 10031 assessed as reduction in biofilm viability at 12.5 ug/ml relative to control; format: functional; conditions: dose 12.5 µg/ml
[21] = tested on: Staphylococcus aureus; test: Antibacterial activity against methicillin resistant Staphylococcus aureus N315 in presence of 2.5 mmol/L Ca2+ by broth microdilution method; format: functional
[22] = tested on: Staphylococcus aureus; test: Inhibition of biofilm formation in Staphylococcus aureus ATCC 29213 at 3.125 ug/ml by crystal violet staining assay relative to control; format: functional
[23] = tested on: Pseudomonas aeruginosa; test: Antibacterial activity against Pseudomonas aeruginosa ATCC 9027 in presence of 19 umol/L Zn2+ by broth microdilution method; format: functional
[24] = tested on: Staphylococcus aureus; test: Antibacterial activity against Staphylococcus aureus ATCC 29213 infected in cyclophosphamide immunosuppressed keratitis mouse model assessed as log reduction in number of viable bacterial colonies at 10 mg/ml administrated tropically; format: functional
[25] = tested on: Staphylococcus aureus; test: Antibacterial activity against methicillin resistant Staphylococcus aureus N315 in presence of 20 umol/L Fe3+ by broth microdilution method; format: functional
[26] = Selectivity index, ratio of CC50 for cytotoxicity against mouse NCTC clone 929 cells to MIC for antibacterial activity against Staphylococcus aureus ATCC 29213; format: toxicity, cell-based; conditions: read-out: Selectivity Index
[27] = tested on: Escherichia coli; test: Antibacterial activity against Escherichia coli ATCC 25922 in presence of 19 umol/L Zn2+ by broth microdilution method; format: functional
[28] = tested on: Staphylococcus aureus; test: Antibacterial activity against methicillin resistant Staphylococcus aureus NCTC 10442 in presence of 140 mmol/L Na+ by broth microdilution method; format: functional
[29] = tested on: Klebsiella pneumoniae; test: Antibacterial activity against Klebsiella pneumoniae ATCC 10031 assessed as loss in membrane integrity at 8 times MIC incubated for 4 hrs by LIVE/DEAD BacLight bacterial viability assay; format: functional, organism-based; conditions: Cell membrane
[30] = tested on: Staphylococcus aureus; test: Antibacterial activity against Staphylococcus aureus ATCC 29213 in presence of 20 umol/L Fe2+ by broth microdilution method; format: functional
[31] = tested on: Staphylococcus aureus; test: Antibacterial activity against Staphylococcus aureus ATCC 29213 assessed as loss in cell viability at 8 times MIC incubated for 4 hrs by LIVE/DEAD BacLight bacterial viability assay; format: functional, organism-based; conditions: Cell membrane
[32] = tested on: Escherichia coli; test: Antibacterial activity against Escherichia coli ATCC 25922 in presence of 2.5 mmol/L Ca2+ by broth microdilution method; format: functional
[33] = tested on: Klebsiella pneumoniae; test: Antibacterial activity against Klebsiella pneumoniae ATCC 14581 in presence of 19 umol/L Fe2+ by broth microdilution method; format: functional
[34] = tested on: Klebsiella pneumoniae; test: Antibacterial activity against Klebsiella pneumoniae ATCC 10031 assessed as log reduction in bacterial load at 8 times MIC measured after 2 hrs by time kill assay; format: functional
[35] = tested on: Klebsiella pneumoniae; test: Antibacterial activity against Klebsiella pneumoniae ATCC 14581 in presence of 140 mmol/L Na+ by broth microdilution method; format: functional
[36] = tested on: Staphylococcus aureus; test: Inhibition of biofilm formation in Staphylococcus aureus ATCC 29213 at 6.25 ug/ml by crystal violet staining assay relative to control; format: functional
[37] = tested on: Klebsiella pneumoniae; test: Antibacterial activity against Klebsiella pneumoniae ATCC 14581 by microbroth dilution assay; format: functional
[38] = tested on: Staphylococcus aureus; test: Antibacterial activity against methicillin resistant Staphylococcus aureus NCTC 10442 in presence of 2.5 mmol/L Ca2+ by broth microdilution method; format: functional
[39] = tested on: Staphylococcus aureus; test: Antibiofilm activity against 24 hrs preformed biofilm in Staphylococcus aureus ATCC 29213 assessed as reduction in biofilm viability at 0.78 ug/ml relative to control; format: functional; conditions: dose 0.78 µg/ml
[40] = tested on: Staphylococcus aureus; test: Antibacterial activity against Staphylococcus aureus ATCC 29213 in presence of 19 umol/L Zn2+ by broth microdilution method; format: functional
[41] = Cytotoxicity against HEK293 cells assessed as cell survival rate at 12.5 ug/ml by CCK-8 assay relative to control; format: toxicity, cell-based; conditions: human, at 12.5 µg/mL, read-out: Activity
[42] = tested on: Staphylococcus aureus; test: Antibacterial activity against methicillin resistant Staphylococcus aureus N315 in presence of 4.5 mmol/L K+ by broth microdilution method; format: functional

With `CCCCCCCN1c2ccccc2Sc2ccc(OCC(=O)N[C@@H](CCCNC(=N)N)C(=O)N[C@@H](CCCNC(=N)N)C(N)=O)cc21` as the compound, how does the MIC [1] read?
The MIC was 3.12 µg/mL.

And the selectivity ratio [2]?
Its selectivity ratio is 8.

What about the MIC [3] of the same compound?
Its MIC is 3.12 µg/mL.

And the MIC [4]?
The MIC was 1.56 µg/mL.

What about the MIC [5] of the same compound?
Its MIC is 1.56 µg/mL (≈ 2.28 µM).

What about the “log(activity)” value [6] of the same compound?
The value was greater than 3.

What about the inhibition at 0.78 µg/mL [7] of the same compound?
Its inhibition at 0.78 µg/mL is 45%.

What about the MIC [8] of the same compound?
Its MIC is 6.25 µg/mL.

What about the MIC [9] of the same compound?
Its MIC is 1.56 µg/mL (≈ 2.28 µM).

What about the inhibition at 12.5 µg/mL [10] of the same compound?
The inhibition at 12.5 µg/mL was 96.7%.

What about the MIC [11] of the same compound?
Its MIC is 6.25 µg/mL.

What about the Activity [12] of the same compound?
Its Activity is “Active”.

And the MIC [13]?
The MIC was 3.12 µg/mL.

And the MIC [14]?
The MIC was 3.12 µg/mL.

What about the MIC [15] of the same compound?
The MIC was 3.12 µg/mL.

And the viability at 3.125 ug/ml [16]?
Its viability at 3.125 ug/ml is 95.4%.

What about the Activity [17] of the same compound?
The Activity was 27.75%.

What about the viability at 50 ug/ml [18] of the same compound?
Its viability at 50 ug/ml is 56%.

What about the inhibition at 12.5 µg/mL [19] of the same compound?
The inhibition at 12.5 µg/mL was 93.9%.

What about the Activity [20] of the same compound?
Its Activity is 5.88%.

What about the MIC [21] of the same compound?
Its MIC is 3.12 µg/mL.

What about the inhibition at 3.125 µg/mL [22] of the same compound?
Its inhibition at 3.125 µg/mL is 87.2%.

And the MIC [23]?
The MIC was 3.12 µg/mL.

What about the “log(activity)” value [24] of the same compound?
Its value is 5.28.

And the MIC [25]?
The MIC was 1.56 µg/mL.

What about the selectivity ratio [26] of the same compound?
Its selectivity ratio is 8.

What about the MIC [27] of the same compound?
The MIC was 3.12 µg/mL.

What about the MIC [28] of the same compound?
Its MIC is 1.56 µg/mL.

And the Activity [29]?
The Activity was “Active”.

What about the MIC [30] of the same compound?
Its MIC is 1.56 µg/mL.

What about the Activity [31] of the same compound?
The Activity was “Active”.

And the MIC [32]?
Its MIC is 3.12 µg/mL.

And the MIC [33]?
The MIC was 3.12 µg/mL.

And the “log(activity)” value [34]?
Its value is greater than 3.

And the MIC [35]?
Its MIC is 3.12 µg/mL.

What about the inhibition at 6.25 µg/mL [36] of the same compound?
Its inhibition at 6.25 µg/mL is 95.1%.

What about the MIC [37] of the same compound?
Its MIC is 3.12 µg/mL (≈ 4.58 µM).

And the MIC [38]?
Its MIC is 3.12 µg/mL.

What about the Activity [39] of the same compound?
The Activity was 91.66%.

And the MIC [40]?
The MIC was 1.56 µg/mL.

What about the viability at 12.5 ug/ml [41] of the same compound?
Its viability at 12.5 ug/ml is 80.6%.

And the MIC [42]?
Its MIC is 1.56 µg/mL.
